Among the data in PubChem BioAssay (NCI) are TGI and GI50 values, retold here.

Common to all, as to experiment: NCI tumour cell line growth inhibition, 48 h
The subject of assay [1] is EKVX NSCLC.
Assay [2] has as its system OVCAR-4 ovarian.
The subject of assay [3] is HOP-62 NSCLC.
For assay [4], the system named is HCT-116 colon.
Assay [5] relates to KM20L2 colon.
In assay [6] the test system is TK-10 renal.
Assay [7] has as its system RXF 393 renal.
The subject of assay [8] is DMS 114 small cell lung.
Assay [9] concerns 786-0 renal.
Assay [10] concerns A549 NSCLC.

Several values for one entry are separate records, joined by “and”; a condition that tells them apart may be missing. Identical values can stand only once.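 Grown in 96-well plates, cells were treated for 48 hours with each compound at five concentrations. Insufficient inhibition: endpoint recorded as highest concentration tested. GI50: concentration for 50% inhibition of growth. TGI denotes the concentration required for complete inhibition of growth.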 A value given as a limit tells only on which side of the number the result lay.

For `Cc1nc(Nc2ccccc2)sc1C(=O)NNc1ccc([N+](=O)[O-])cc1[N+](=O)[O-]`, the TGI is 71.2 µM in assay [1]; more than 100 µM in assay [2]; more than 100 µM in [3]; more than 100 µM in [4]; more than 100 µM in assay [5]; more than 100 µM in assay [6]. Moreover, the TGI was 78.5 µM in [7], 65.8 µM in assay [8], more than 100 µM in assay [9] and more than 100 µM in assay [10].
Turning to `c1cc(-c2cn[nH]c2)cc(-c2cn[nH]c2)c1`, the TGI was 58.6 µM in assay [1]; more than 100 µM in assay [2]; more than 100 µM in assay [3]; 49.4 µM in [4]; more than 100 µM in [5]; more than 100 µM in [6]. In addition, the TGI was 36.8 µM in assay [7], more than 100 µM in [8], more than 100 µM in [9] and 69.5 µM in [10].
Consider `CCc1cccc(C(C)CC)c1NC(=O)C(=O)C(CC(=O)Nc1ccc(Cl)c(Cl)c1)C(=O)OC` (centres undefined), for which the TGI in [1], in assay [2], in [3], in assay [4], in assay [5] and in assay [6] was more than 100 µM in each case. In addition, the TGI in assay [7], in assay [8], in assay [9] and in assay [10] was more than 100 µM each time.
In the case of `CC1CCP(=O)(c2ccccc2)CC1` (centres undefined), the TGI in assay [1], in [2], in assay [3], in [5], in assay [6] and in assay [7] was more than 100 µM in each case. Further, the TGI in assay [8], in assay [9] and in [10] was more than 100 µM throughout.
Consider `COc1ccc(C(=O)C(C(=O)C(=O)Nc2nccs2)c2ccc(OC)cc2)cc1` (centres undefined), for which the TGI in assay [4], in assay [5], in [6], in assay [7], in [8] and in [9] was more than 100 µM each time. The TGI in assay [10] is more than 100 µM.
Regarding `O=C(O)/C(=C\c1ccccc1Cl)S(=O)(=O)c1ccccc1`, the TGI in [2], in assay [3], in [4], in assay [5], in [6] and in assay [7] was more than 100 µM each time. For the same compound, the TGI in [8], in assay [9] and in [10] was more than 100 µM in each case.
On to `O=C1C(=O)c2ccccc2C(O)=C1CC=C(Cl)Cl`, for which the GI50 in [1] was 13.4 µM; in assay [2], 18.9 µM and 26.9 µM; in assay [3], 9.44 µM and 14 µM; in assay [4], 1.15 µM and 2.96 µM; in assay [5] it was 7.04 µM; in assay [6], 25.7 µM and 20.7 µM. The GI50 in [7] was 13.8 µM and 13.7 µM; in assay [8], 14.5 µM; in assay [9] it was 4.63 µM and 13.4 µM; in assay [10] it was 5.63 µM. In addition, the TGI in assay [1] was 57.1 µM and 206 µM; in assay [2], 96.9 µM and 135 µM and > 100 µM; in assay [3], 64.1 µM and 61 µM and > 100 µM; in assay [4] it was 29.7 µM and 44 µM and > 100 µM; in [5], 200 µM; in assay [6] it was 98.6 µM and 195 µM and > 100 µM. The TGI in assay [7] is 76.9 µM and 203 µM and 97.9 µM; in assay [8] it was 51.7 µM and 70.5 µM; in assay [9], > 68.9 µM and 250 µM and > 100 µM; in [10], > 78.7 µM and 129 µM and > 100 µM.
With `Cc1cc(N(CCC#N)CCC#N)ccc1N=Nc1cccc(Cl)c1`, the TGI in [1], in [2], in assay [3], in [4], in assay [5] and in [6] was more than 100 µM throughout. The TGI in assay [7], in [8], in assay [9] and in assay [10] was more than 100 µM each time.
As to `C#C[C@H](CCCC)OC(=O)N[C@H](C)c1ccccc1`, the TGI in [1] is more than 100 µM; in assay [2], more than 100 µM; in assay [3], more than 100 µM; in assay [4] it was 63.4 µM; in assay [5], more than 100 µM; in assay [6], more than 100 µM. Further, the TGI in assay [7] is 92.4 µM; in assay [8], 81 µM; in [9], more than 100 µM; in [10] it was more than 100 µM.
Take `BrC1=CC=C2NCCCCCCN=C3C=CC(Br)=CC=C3NCCCCCCN=C2C=C1`: the TGI in assay [1], in assay [2], in assay [3], in [4], in assay [5] and in assay [6] was more than 25.5 µM throughout. Besides, the TGI in [7], in [8], in [9] and in assay [10] was more than 25.5 µM in each case.
Turning to `Cn1c2ccccc2c(=O)c2c([N+](=O)[O-])ccc(NCCN)c21`, the TGI amounted to 31 µM in assay [1]; 24.9 µM in assay [2]; 30.7 µM in assay [3]; 15.3 µM in [4]; 24.1 µM in assay [5]; 28.5 µM in [6]. Further, the TGI in [7] worked out at 23.3 µM; in [8], 26.4 µM; in [9] it was 20.6 µM; in assay [10], 25.5 µM.
Regarding `CC(CN1CCN(CC(C)Nc2ccnc3cc(Cl)ccc23)CC1)Nc1ccnc2cc(Cl)ccc12` (centres undefined), the TGI in assay [1] is more than 58.9 µM; in assay [2], more than 61.6 µM; in assay [3], more than 63 µM; in assay [4], 12.9 µM; in assay [5], 26.9 µM; in assay [6] it was 49.2 µM. For the same compound, the TGI in assay [7] is 14.7 µM; in assay [8], 41 µM; in [9], 33.8 µM; in assay [10], more than 57 µM.
With `CCCCCC(O)(CCCCC)CCCCCCCCC1=C(O)c2[nH]c(=O)ccc2C(=O)C1=O`, the TGI is 28.8 µM in [1]; 7.06 µM in assay [2]; 24.9 µM in [3]; 16.4 µM in [4]; 27.9 µM in assay [5]; 21.4 µM in assay [7]. The TGI turned out to be 16.5 µM in assay [8], 20.8 µM in assay [9] and 26.3 µM in [10].
As to `N#CC(C(=N/NC(N)=S)/C(=N/NC(N)=S)C(C#N)c1ccc(Cl)cc1)c1ccc(Cl)cc1` (centres undefined), the TGI in assay [1], in assay [2], in assay [3], in [4], in assay [5] and in assay [6] was more than 100 µM in each case. In addition, the TGI in assay [7], in assay [8], in assay [9] and in assay [10] was more than 100 µM each time.
Regarding `CCCCCCCCCCCC(O)=C1C(=O)CC(O)CC1=O` (centres undefined), the TGI in [1], in assay [2], in assay [3], in [4], in assay [5] and in assay [6] was more than 100 µM throughout. Moreover, the TGI in [7], in assay [8], in assay [9] and in [10] was more than 100 µM each time.
For `CC1(C)CC(=O)C(=[N+]=[N-])C(=O)C1`, the TGI in [1], in assay [2], in assay [3], in assay [4], in assay [5] and in [6] was more than 100 µM throughout. Further, the TGI in assay [7], in assay [8], in assay [9] and in assay [10] was more than 100 µM in each case.
